Experimental data as given in patent US12350247B2, “Use of APE1/Ref-1 inhibitors for treatment of retinal diseases” (Indiana University Research and Technology Corporation, priority 2017, dated 2025).
Read-outs that look alike come from different tables or passages of the source.

Tests used:
pancreatic tumor = experiment: Xenograft model, APX3330 with gemcitabine; assay type: in vivo; details: APX3330 (25 mg/kg) combined with gemcitabine (35 mg/kg)
Source text: The data in FIG. 14C is tumor volume at sacrifice. Combination therapy was well-tolerated.

murine KPC cells = experiment: Alamar blue proliferation-based assay; assay type: cell-based; details: 3 days incubation
[1] = tested on: Pa03C and Panc10.05 tumor cells; experiment: 3D spheroid / co-culture model of pancreatic cancer (both patient lines)
Procedure: Pa03C cells were plated into 3D cultures alone or with CAF19 cells.
Pa03C and Panc10.05 tumor cells were grown in 3D cultures in the presence of CAFs. Spheroids were treated with either single agents, vehicle (DMSO) or combination of targeted agents on days 4 and 8 (black arrows), and the intensity of tumor (red) and CAF (green) were quantified as described in Example 7 every 3-4 days in culture.

CAFs (CAF19 cells) = experiment: 3D spheroid co-culture, CAF signal (green channel); details: for CC50: read-out: LC50, 3D Cultures, CAFs

CCCCCCCCC/C(=C\C1=C(C)C(=O)C(OC)=C(OC)C1=O)C(=O)O [APX3330]
tolerability of combination therapy (pancreatic tumor): well-tolerated | tumor volume at sacrifice vs single agents alone (pancreatic tumor): significantly decreased tumor volume | cytotoxicity in combination with Napabucasin (murine KPC cells): enhancement of Napa-induced cytotoxicity | tumor cell growth in combination with SLC-0111 ([1]; 3D co-cultures with CAFs, APX3330 at 50 μM, APX2009 at 10 μM, APX2014 at 0.6 μM): significantly attenuated tumor cell growth | tumor killing in combination with napabucasin ([1]; 3D spheroid model (tumor and CAF)): synergistic tumor killing effect | single agent efficacy on 3D spheroid growth ([1]; treated on days 4 and 8, FIG. 17): reduced cell growth, cell proliferation | area of the CAFs (CAFs (CAF19 cells); APX3330 alone, co-culture with Pa03C): reduction in the area of the CAFs | CC50 (CAFs (CAF19 cells); co-culture with Pa03C, D12 curves): 57.3 µM | CC50 (CAFs (CAF19 cells); co-culture with Panc10.05, D12 curves): 59.4 µM
